According to patent US11242334B2, “Heterocyclic compounds as kinase inhibitors, compositions comprising the heterocyclic compound, and methods of use thereof” (JS INNOPHARM (SHANGHAI) LTD, priority 2017, dated 2022):

Key:
human ERK2 = biological target: T1, human ERK2 (Homo sapiens, UniProt P28482); experiment: LanthaScreen TR-FRET enzymatic assay, ERK2; details: IC50 values of ERK2 biochemical activity; 5 μM ATP, 400 nM ATF2-GFP substrate
T1 construct: recombinantly expressed as GST-tagged full-length protein purified from E. coli; GST; purchased Invitrogen PV3311; host or cells: E. coli
In short: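 GST-tagged full-length ERK2 from E. coli, activated with MAP2K1, was used at 20 ng/ml with 400 nM GFP-ATF2(19-96) and 5 μM ATP (near Km). Compound was pre-incubated 15 min, and the reaction ran 1 h at room temperature. pThr71 was detected by Tb-antibody TR-FRET ratio, with IC50 from sigmoid fitting against 1% DMSO.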

Colo205 cell line = experiment: Colo205 cell proliferation assay (MTT assay, WST-8 readout); assay type: cell-based; details: Homo sapiens; IC50 values of growth inhibition in Colo 205 cells; 72 hours
In short: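 Colo205 cells were seeded at 5,000 cells/well in RPMI-1640 with 10% FBS and attached for 24 h at 37° C. They were then exposed for 72 h to compound at final 50 μM to 0.005 μM (0.5% DMSO). Viability was read as WST-8 absorbance at 450 nm after 2 h, and IC50 of growth inhibition was determined.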

T1 sequence (P28482 whole entry): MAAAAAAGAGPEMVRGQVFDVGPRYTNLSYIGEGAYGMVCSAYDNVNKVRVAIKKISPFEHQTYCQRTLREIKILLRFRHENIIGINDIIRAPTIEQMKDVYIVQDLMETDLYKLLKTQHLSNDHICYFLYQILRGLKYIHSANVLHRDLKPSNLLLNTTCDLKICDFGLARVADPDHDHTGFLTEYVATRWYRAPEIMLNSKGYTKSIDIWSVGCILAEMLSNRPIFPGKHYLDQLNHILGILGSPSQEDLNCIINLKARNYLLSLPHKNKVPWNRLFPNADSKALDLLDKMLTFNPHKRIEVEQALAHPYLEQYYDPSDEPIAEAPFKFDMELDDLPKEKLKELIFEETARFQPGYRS

Row | Structure (SMILES) | IC50 (human ERK2) | IC50 (Colo205 cell line)
1 | O=c1cc(-c2ccc3[nH]nc(-c4ccc(OC5CC5)nc4)c3c2)ccn1[C@H](CO)c1cc(F)cc(Br)c1 [Example 118, (S)-1-(1-(3-bromo-5-fluorophenyl)-2-hydroxyethyl)-4-(3-(6-cyclopropoxypyridin-3-yl)-1H-indazol-5-yl)pyridin-2(1H)-one] | < 10 nM | ≤ 500 nM
2 | CCOc1cc(-c2n[nH]c3ccc(-c4ccn([C@H](CO)c5cc(F)cc(Br)c5)c(=O)c4)cc23)ccn1 [Example 119, (S)-1-(1-(3-bromo-5-fluorophenyl)-2-hydroxyethyl)-4-(3-(2-ethoxypyridin-4-yl)-1H-indazol-5-yl)pyridin-2(1H)-one] | < 10 nM | ≤ 500 nM
3 | Cn1cc(-c2n[nH]c3ccc(-c4ccn([C@H](CO)c5cc(F)cc(Br)c5)c(=O)c4)cc23)ccc1=O [Example 120, (S)-1-(1-(3-bromo-5-fluorophenyl)-2-hydroxyethyl)-4-(3-(1-methyl-6-oxo-1,6-dihydropyridin-3-yl)-1H-indazol-5-yl)pyridin-2(1H)-one] | < 10 nM | 1000 to 5000 nM
4 | Cn1ccc(-c2n[nH]c3ccc(-c4ccn([C@H](CO)c5cc(F)cc(Br)c5)c(=O)c4)cc23)cc1=O [Example 121, (S)-1-(1-(3-bromo-5-fluorophenyl)-2-hydroxyethyl)-4-(3-(1-methyl-2-oxo-1,2-dihydropyridin-4-yl)-1H-indazol-5-yl)pyridin-2(1H)-one] | < 10 nM | 1000 to 5000 nM
5 | COc1ccc(-c2n[nH]c3ccc(-c4ccn([C@H](CO)c5cc(F)cc(Br)c5)c(=O)c4)nc23)cn1 [Example 122, (S)-1-(1-(3-bromo-5-fluorophenyl)-2-hydroxyethyl)-4-(3-(6-methoxypyridin-3-yl)-1H-pyrazolo[4,3-b]pyridin-5-yl)pyridin-2(1H)-one] | < 10 nM | 1000 to 5000 nM
6 | O=c1cc(-c2ccc3[nH]nc(-c4ccc(F)cn4)c3c2)ccn1Cc1ccnc(C(F)(F)F)c1 [Example 123, 4-(3-(5-fluoropyridin-2-yl)-1H-indazol-5-yl)-1-((2-(trifluoromethyl)pyridin-4-yl)methyl)pyridin-2(1H)-one] | 10 to 50 nM | > 5000 nM
7 | COc1ccc(-c2n[nH]c3cnc(-c4ccn([C@H](CO)c5cc(F)cc(Br)c5)c(=O)c4)cc23)cn1 [Example 124, (S)-1-(1-(3-bromo-5-fluorophenyl)-2-hydroxyethyl)-4-(3-(6-methoxypyridin-3-yl)-1H-pyrazolo[3,4-c]pyridin-5-yl)pyridin-2(1H)-one] | < 10 nM | 500 to 1000 nM
8 | CC(c1cc(F)cc(Br)c1)n1ccc(-c2ccc3[nH]nc([C@H]4CC[C@H](O)CC4)c3c2)cc1=O (some centres unmarked) [Example 140, 1-(1-(3-bromo-5-fluorophenyl)ethyl)-4-(3-((1r,4r)-4-hydroxycyclohexyl)-1H-indazol-5-yl)pyridin-2(1H)-one] | < 10 nM | 1000 to 5000 nM
9 | Cc1cc(-c2n[nH]c3ccc(-c4ccn(C(C)c5ccnc(C(F)(F)F)c5)c(=O)c4)cc23)ccn1 (centres unmarked) [Example 142, 4-(3-(2-methylpyridin-4-yl)-1H-indazol-5-yl)-1-(1-(2-(trifluoromethyl)pyridin-4-yl)ethyl)pyridin-2(1H)-one] | < 10 nM | ≤ 500 nM
10 | Cc1cc(-c2n[nH]c3ccc(-c4cc(C)n(Cc5ccnc(C(F)(F)F)c5)c(=O)c4)cc23)ccn1 [Example 143, 6-methyl-4-(3-(2-methylpyridin-4-yl)-1H-indazol-5-yl)-1-((2-(trifluoromethyl)pyridin-4-yl)methyl)pyridin-2(1H)-one] | < 10 nM | 500 to 1000 nM
11 | Cc1cc(-c2n[nH]c3cnc(-c4ccn(Cc5ccnc(C(F)(F)F)c5)c(=O)c4)cc23)ccn1 [Example 144, 4-(3-(2-methylpyridin-4-yl)-1H-pyrazolo[3,4-c]pyridin-5-yl)-1-((2-(trifluoromethyl)pyridin-4-yl)methyl)pyridin-2(1H)-one] | < 10 nM | 1000 to 5000 nM
12 | O=c1cc(-c2ccc3[nH]nc(C4CCOCC4)c3c2)ccn1[C@H](CO)c1cc(F)cc(Br)c1 [Example 145, (S)-1-(1-(3-bromo-5-fluorophenyl)-2-hydroxyethyl)-4-(3-(tetrahydro-2H-pyran-4-yl)-1H-indazol-5-yl)pyridin-2(1H)-one] | < 10 nM | 500 to 1000 nM
13 | CC(c1cc(F)cc(Br)c1)n1ccc(-c2ccc3[nH]nc(C4CCOCC4)c3c2)cc1=O (centres unmarked) [Example 146, 1-(1-(3-bromo-5-fluorophenyl)ethyl)-4-(3-(tetrahydro-2H-pyran-4-yl)-1H-indazol-5-yl)pyridin-2(1H)-one] | < 10 nM | 1000 to 5000 nM
14 | O=c1cc(-c2ccc3[nH]nc(C4CCOCC4)c3c2)ccn1Cc1ccnc(C(F)(F)F)c1 [Example 147, 4-(3-(tetrahydro-2H-pyran-4-yl)-1H-indazol-5-yl)-1-((2-(trifluoromethyl)pyridin-4-yl)methyl)pyriidn-2(1H)-one] | < 10 nM | ≤ 500 nM
15 | O=c1cc(-c2ccc3[nH]nc([C@H]4CC[C@H](O)CC4)c3c2)ccn1Cc1ccnc(C(F)(F)F)c1 [Example 148, 4-(3-((1r,4r)-4-hydroxycyclohexyl)-1H-indazol-5-yl)-1-((2-(trifluoromethyl)pyridin-4-yl)methyl)pyridin-2(1H)-one] | < 10 nM | 1000 to 5000 nM
16 | O=c1cc(-c2ccc3[nH]nc([C@H]4CC[C@@H](O)CC4)c3c2)ccn1Cc1ccnc(C(F)(F)F)c1 [Example 149, 4-(3-((1s,4s)-4-hydroxycyclohexyl)-1H-indazol-5-yl)-1-((2-(trifluoromethyl)pyridin-4-yl)methyl)pyridin-2(1H)-one] | 10 to 50 nM | > 5000 nM
